13 compounds from patent US8110570B2, “Modulators of acetyl-coenzyme A carboxylase and methods of use thereof” (Cropsolution, Inc., priority 2008, dated 2012) can be followed below.

Assay [1] addresses T1, hACC1 (Homo sapiens, UniProt Q13085).
T1 construct: PCR primers were designed for full-length hACC1 and hACC2 using GenBank submissions AY237919 and AJ575592, respectively; His tag (C); made in house; host or cells: baculovirus, Sf9 insect cells
Put plainly: [14C]bicarbonate incorporation assay, overall ACC activity. The format is biochemical. Particulars: recombinant hACC1, overall ACC activity. The procedure:
(§1) In vitro IC50 values of human ACC were determined using recombinant enzyme produced by standard procedures. For example, full-length cDNAs for both the human isoforms (hACC1 and hACC2) were each cloned and expressed as a recombinant protein using a baculovirus system. Double stranded cDNA from human fetal liver (Quick-Clone cDNA, cat. #7171-1) was purchased from BD/Clontech (Mt. View, Calif.). PCR primers were designed for full-length hACC1 and hACC2 using GenBank submissions AY237919 and AJ575592, respectively. The Advantage GC 2 PCR kit (BD/Clontech) was used for amplification. The PCR products (about 7 Kb) were TOPO-cloned into the pCR4Blunt vector (Invitrogen, Carlsbad, Calif.), and 6 clones of each gene were isolated. […] Full length versions of the two cDNAs corresponding to their respective Genbank sequences were assembled in pBluescript SK+ (Stratagene, La Jolla, Calif.) by combining error-free fragments from the PCR clones. The resulting hACC1 clone, designated pCS35, has six silent nucleotide differences compared to Genbank accession AY237919. The final hACC2 clone, designated pCS36, has ten silent nucleotide differences compared to Genbank accession AJ575592. Primers were designed to PCR amplify the cDNAs along with the in-frame 3′-his tag sequences from the pET vector and TOPO-cloned the resulting products into the Gateway® entry vector pENTR/D-TOPO. The ACC2 primers were designed to delete amino acids 1-148 and add Met-Gly in front of Lys149 in the final product. The resulting entry clones were transferred to BaculoDirect™ linear DNA (Invitrogen corp.) using the Gateway® LR recombination reaction. The recombinant baculovirus DNA was transfected into insect cells and viral amplification was performed according to the manufacturer's protocols. For protein expression sf9 cells were infected with a P3 viral stock in the presence of 50 uM biotin. The cells were harvested after 48-72 hr, lysed by sonication, and the resulting extract was clarified by centrifugation. ACC in the crude extract was concentrated by ammonium sulfate precipitation (40% w/v) and purified by Ni^2+-NTA chromatography (Novagen) followed by anion exchange chromatography on a UNO-Q column (BioRad).
(§2) Overall ACC activity in the hACC preparations is measured by following incorporation of [^14C]bicarbonate into […] essentially as described (Thumpy and Wakil, J Biol Chem 260, 6318-6323 (1985). Briefly, the reaction mixture (50 μL) contains: 50 mM Hepes (pH7.4), 20 mM K-Citrate, 20 mM Mg-Acetate 1.5 mM MgSO4, 2 mM DTT, 2 mM acetyl-CoA, 12 mM NaHCO3, 0.2 mM NaH^14CO3 (˜50 mCi/mmol), 0.01% (v/v) Triton X-100, 0.75 mg/mL BSA, 1% (v/v) DMSO (with or without inhibitor), and 0.3 μg (hACC1) or 0.15 μg (hACC2) enzyme. Reactions are initiated by the addition of ATP to a final concentration 2 mM. After 10 minutes at 37° C., the reaction is stopped by the addition of 2N HCl (50 μL). The samples are evaporated in a hood overnight, resuspended in H2O (200 μL), and incorporated label is quantified by scintillation counting in scintillation cocktail (3 mL). Inhibition data are fit to dose-response curves and IC50 values are reported (i.e. the concentration of inhibitor that gives 50% inhibition).

The target in assay [2] is T2, hACC2 (Homo sapiens, UniProt O00763).
T2 construct: delete amino acids 1-148 and add Met-Gly in front of Lys149 in the final product; His tag (C); made in house; host or cells: baculovirus, Sf9 insect cells
T2 sequence (O00763 149-2458 limits assumed): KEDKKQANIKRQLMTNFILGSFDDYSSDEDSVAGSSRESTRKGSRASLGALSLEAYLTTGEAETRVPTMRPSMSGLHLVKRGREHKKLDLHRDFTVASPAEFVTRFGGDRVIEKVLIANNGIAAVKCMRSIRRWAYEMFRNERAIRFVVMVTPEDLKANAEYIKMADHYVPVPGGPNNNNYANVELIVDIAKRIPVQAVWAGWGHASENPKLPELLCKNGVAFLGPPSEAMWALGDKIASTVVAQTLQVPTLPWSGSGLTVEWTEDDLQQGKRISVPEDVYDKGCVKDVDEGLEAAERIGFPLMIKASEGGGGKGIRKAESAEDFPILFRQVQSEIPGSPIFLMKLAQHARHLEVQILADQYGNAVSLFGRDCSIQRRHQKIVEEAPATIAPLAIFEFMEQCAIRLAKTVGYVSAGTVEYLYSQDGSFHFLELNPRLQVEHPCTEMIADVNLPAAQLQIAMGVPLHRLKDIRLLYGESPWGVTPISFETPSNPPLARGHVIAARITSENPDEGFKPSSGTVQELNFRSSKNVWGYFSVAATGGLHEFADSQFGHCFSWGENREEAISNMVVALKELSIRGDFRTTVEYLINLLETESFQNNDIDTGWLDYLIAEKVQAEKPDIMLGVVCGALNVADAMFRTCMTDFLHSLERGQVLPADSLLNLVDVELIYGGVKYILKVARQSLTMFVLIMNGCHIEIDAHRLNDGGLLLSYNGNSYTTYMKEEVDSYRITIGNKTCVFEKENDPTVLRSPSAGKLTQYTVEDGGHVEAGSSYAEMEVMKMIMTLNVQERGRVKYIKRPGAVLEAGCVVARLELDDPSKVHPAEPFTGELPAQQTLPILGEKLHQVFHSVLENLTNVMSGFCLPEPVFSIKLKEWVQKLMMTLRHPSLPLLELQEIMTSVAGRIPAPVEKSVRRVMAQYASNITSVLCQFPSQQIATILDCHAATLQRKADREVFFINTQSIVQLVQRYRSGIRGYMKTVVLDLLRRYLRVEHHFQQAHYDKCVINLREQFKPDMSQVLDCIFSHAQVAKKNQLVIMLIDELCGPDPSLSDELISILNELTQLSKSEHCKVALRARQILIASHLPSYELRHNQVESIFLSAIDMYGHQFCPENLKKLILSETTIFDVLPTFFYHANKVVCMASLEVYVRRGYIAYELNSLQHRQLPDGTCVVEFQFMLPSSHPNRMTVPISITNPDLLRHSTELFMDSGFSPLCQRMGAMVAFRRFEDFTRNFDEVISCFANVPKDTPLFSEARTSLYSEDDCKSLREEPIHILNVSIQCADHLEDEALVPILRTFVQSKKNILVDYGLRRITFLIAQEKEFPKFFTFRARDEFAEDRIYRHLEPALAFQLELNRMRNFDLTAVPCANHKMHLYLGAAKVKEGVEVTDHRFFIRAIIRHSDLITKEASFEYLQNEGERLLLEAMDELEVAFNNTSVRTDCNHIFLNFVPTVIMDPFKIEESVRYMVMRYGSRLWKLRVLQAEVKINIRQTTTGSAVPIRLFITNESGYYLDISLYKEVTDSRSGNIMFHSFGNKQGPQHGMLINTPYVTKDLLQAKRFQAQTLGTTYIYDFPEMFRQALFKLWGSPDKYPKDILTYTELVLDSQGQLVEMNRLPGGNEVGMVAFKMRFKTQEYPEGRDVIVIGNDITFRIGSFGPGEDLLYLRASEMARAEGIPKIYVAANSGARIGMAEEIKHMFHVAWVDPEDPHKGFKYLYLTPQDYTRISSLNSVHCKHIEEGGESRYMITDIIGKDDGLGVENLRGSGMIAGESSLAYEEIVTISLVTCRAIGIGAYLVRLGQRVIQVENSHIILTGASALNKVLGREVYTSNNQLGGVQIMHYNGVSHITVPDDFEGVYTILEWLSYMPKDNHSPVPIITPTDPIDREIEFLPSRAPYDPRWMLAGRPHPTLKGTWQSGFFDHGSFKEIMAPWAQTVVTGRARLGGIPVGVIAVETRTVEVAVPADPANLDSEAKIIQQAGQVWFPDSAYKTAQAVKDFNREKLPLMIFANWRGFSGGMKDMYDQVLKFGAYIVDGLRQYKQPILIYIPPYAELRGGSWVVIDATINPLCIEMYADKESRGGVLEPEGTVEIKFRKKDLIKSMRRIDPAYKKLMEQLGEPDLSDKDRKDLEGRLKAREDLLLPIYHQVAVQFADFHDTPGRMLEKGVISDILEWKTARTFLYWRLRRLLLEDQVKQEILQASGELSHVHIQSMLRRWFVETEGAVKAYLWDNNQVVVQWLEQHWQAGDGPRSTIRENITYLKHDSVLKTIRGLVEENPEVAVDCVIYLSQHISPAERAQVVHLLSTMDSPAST
The assay is described as above. Particulars: recombinant hACC2, overall ACC activity. It counts as biochemical. As to the method:
as §1, §2

Assay [3] deals with uACC (Ustilago maydis ACC) (Ustilago maydis, UniProt A0A0D1DYD5). The description is as above. It counts as biochemical.
uACC (Ustilago maydis ACC), sequence (A0A0D1DYD5 entry or part of it): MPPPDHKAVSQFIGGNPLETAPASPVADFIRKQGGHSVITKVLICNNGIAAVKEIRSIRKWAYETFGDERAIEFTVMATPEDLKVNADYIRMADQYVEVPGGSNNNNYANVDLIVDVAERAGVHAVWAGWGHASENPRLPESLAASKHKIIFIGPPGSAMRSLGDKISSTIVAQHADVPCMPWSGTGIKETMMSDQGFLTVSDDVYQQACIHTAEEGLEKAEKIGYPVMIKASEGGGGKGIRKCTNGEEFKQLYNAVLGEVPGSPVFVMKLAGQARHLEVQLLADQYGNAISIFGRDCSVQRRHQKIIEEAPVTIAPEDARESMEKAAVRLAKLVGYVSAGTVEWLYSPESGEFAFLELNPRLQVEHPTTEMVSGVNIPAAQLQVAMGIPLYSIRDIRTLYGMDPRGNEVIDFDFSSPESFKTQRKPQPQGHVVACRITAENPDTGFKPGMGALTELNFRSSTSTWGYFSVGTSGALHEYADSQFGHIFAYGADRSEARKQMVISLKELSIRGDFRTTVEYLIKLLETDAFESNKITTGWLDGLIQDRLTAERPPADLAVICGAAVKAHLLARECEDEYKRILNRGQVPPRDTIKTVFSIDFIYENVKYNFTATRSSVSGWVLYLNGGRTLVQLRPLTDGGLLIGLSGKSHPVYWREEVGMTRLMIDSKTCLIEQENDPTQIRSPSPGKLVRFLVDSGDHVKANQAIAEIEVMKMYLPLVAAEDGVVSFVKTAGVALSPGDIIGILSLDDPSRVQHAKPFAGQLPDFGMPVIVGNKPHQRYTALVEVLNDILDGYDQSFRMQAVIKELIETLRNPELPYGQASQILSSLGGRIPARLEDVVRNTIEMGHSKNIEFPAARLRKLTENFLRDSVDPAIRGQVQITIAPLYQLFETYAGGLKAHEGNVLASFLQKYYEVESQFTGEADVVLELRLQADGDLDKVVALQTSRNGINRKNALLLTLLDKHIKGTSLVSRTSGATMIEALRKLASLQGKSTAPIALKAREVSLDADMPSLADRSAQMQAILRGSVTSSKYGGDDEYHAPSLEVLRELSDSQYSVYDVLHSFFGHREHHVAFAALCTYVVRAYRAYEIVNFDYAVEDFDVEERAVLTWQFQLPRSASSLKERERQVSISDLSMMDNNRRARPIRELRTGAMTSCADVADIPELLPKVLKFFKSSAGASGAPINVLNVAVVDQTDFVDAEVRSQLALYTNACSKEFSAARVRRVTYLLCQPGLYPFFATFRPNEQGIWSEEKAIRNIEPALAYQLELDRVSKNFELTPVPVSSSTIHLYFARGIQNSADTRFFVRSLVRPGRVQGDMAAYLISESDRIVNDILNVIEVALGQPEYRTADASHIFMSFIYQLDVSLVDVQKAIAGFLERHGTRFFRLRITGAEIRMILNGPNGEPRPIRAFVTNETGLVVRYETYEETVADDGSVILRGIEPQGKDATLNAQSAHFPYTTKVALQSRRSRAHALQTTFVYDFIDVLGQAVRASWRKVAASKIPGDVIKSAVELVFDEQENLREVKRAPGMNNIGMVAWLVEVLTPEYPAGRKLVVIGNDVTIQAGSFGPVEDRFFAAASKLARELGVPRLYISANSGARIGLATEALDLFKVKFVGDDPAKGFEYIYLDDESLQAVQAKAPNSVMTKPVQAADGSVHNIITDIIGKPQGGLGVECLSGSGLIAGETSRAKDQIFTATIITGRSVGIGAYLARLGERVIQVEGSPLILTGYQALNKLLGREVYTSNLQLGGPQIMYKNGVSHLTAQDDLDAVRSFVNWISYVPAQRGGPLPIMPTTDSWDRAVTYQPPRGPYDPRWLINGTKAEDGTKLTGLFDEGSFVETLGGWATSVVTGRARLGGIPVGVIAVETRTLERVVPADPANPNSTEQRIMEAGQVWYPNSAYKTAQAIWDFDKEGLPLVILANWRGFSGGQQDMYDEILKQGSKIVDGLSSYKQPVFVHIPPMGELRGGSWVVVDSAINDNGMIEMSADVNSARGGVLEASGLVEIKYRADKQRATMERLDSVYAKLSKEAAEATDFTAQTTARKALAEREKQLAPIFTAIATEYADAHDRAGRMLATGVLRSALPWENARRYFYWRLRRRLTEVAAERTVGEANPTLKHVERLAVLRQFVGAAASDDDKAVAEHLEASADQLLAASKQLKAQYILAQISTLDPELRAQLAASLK
Assay [4] has as its system MDA-MB-231 human breast cancer cells. Put plainly: MTT Cell Proliferation Assay. The format is cell-based. Particulars: 72 hours, read-out: Percent of Control MDA-MB-231. As to the method:
(§3) The anti-proliferative activity of test compounds against human tumor cell lines is evaluated in vitro using the ATCC's MTT Cell Proliferation Assay (Catalog No. 30-100K). Cell lines are grown using media, serum, and culture conditions recommended by the ATCC. Stock cultures are allowed to grow to 70-80% confluence. Cells are seeded into 96-well culture plates at a predetermined density on day 0 in complete medium (0.1 mL). Plates are placed in a humidified incubator at 37° C. with 5% CO2 and 95% HEPA filtered room air for 24 hours. At this point compound (0.1 mL of 2× stock (in media)) is added to the indicated wells and the plates are returned to the incubator for 72 hours. Cell proliferation is measured by addition of MTT reagent to each well and incubated for an additional 4 hours, followed by addition of cell lysis/MTT solublization reagent and incubating overnight. […] Results are expressed as percent of control cells versus compound concentration. Compounds of the present invention, and salts thereof, were evaluated for anti-proliferative activity as described above.

Assay [5] has as its system HCT-116 human colon cancer cells. Put plainly: MTT Cell Proliferation Assay. It counts as cell-based. Particulars: 72 hours, read-out: Percent of Control HCT-116. As to the method: as §3
Assay [6] deals with A2780 human ovary cancer cells. Put plainly: MTT Cell Proliferation Assay. It counts as cell-based. Particulars: 72 hours, read-out: Percent of Control A2780. The procedure: as §3
Assay [7] has as its system PC-3 human prostate cancer cells. Put plainly: MTT Cell Proliferation Assay. The format is cell-based. Particulars: 72 hours, read-out: Percent of Control PC-3. As to the method: as §3

Regarding `COc1cc(C(=O)N2CCC3(CC2)NC(=O)c2cc(Br)ccc2O3)cc2c(OC)cccc12` [Compound 30, 6-Bromo-1′-[(4,8-dimethoxynaphth-2-yl)carbonyl]spiro[2H-1,3-benzoxazin-2,4′-piperidin]-4-(3H)-one], the IC50 (commonly the point on the concentration scale where inhibition reaches its midpoint) in assay [1] is 16 nM; in assay [2] it was 17 nM; in assay [3], 20000 nM.
Taken in the same sequence, the figures for `O=C1NC2(CCN(C(=O)c3cc4c(Cl)cccc4s3)CC2)Oc2ccc(Br)cc21` [Compound 5, 6-Bromo-1′-[(4-chlorobenzthien-2-yl)carbonyl]spiro[2H-1,3-benzoxazin-2,4′-piperidin]-4-(3H)-one] were 4500 nM, 2100 nM and greater than 135000 nM.
Taken in the same sequence, the figures for `COc1ccc(-c2cc(C(=O)N3CCC4(CC3)NC(=O)c3ccccc3O4)n[nH]2)cc1` [Compound 87, 1′-[5-(4-Methoxyphenyl)-1(H)-pyrazol-3-ylcarbonyl]spiro[2H-1,3-benzoxazin-2,4′-piperidin]-4-(3H)-one] were 9700 nM, 12000 nM and 220000 nM.
Turning to `COc1ccc(OC)c2[nH]c(C(=O)N3CCC4(CC3)NC(=O)c3cc(OC(C)C)ccc3O4)cc12` [Compound 184], the IC50 in assay [1] turned out to be 480 nM; in assay [2], 400 nM. Moreover, the activity at 3.3 µM worked out at 75.8% in assay [4], 65.5% in assay [5], 90% in assay [6] and 81.3% in assay [7]. Moreover, the activity at 10 µM in assay [4] amounted to 46.1%; in assay [5], 40.4%; in assay [6], 44.7%; in assay [7], 64.6%.
As to `COc1ccc2cc3c(cc2c1)C(=O)NC1(CCN(C(=O)c2cc(OC)c4cccc(OC)c4n2)CC1)O3` [Compound 164], the half-inhibitory concentration (IC50) in assay [1] and in assay [2] was 4 nM in each case. Moreover, the activity at 3.3 µM in assay [4] stood at 47.6%; in assay [5] it was 54%; in assay [6], 73.1%; in assay [7] it was 68%. For the same compound, the activity at 10 µM in assay [4] turned out to be 13.9%; in assay [5], 43.5%; in assay [6] it was 46%.
Take `COc1ccc2c(c1)C(=O)NC1(CCN(C(=O)c3[nH]c4c(OC)cccc4c3C)CC1)O2` [Compound 151]: the IC50 in assay [1] was found to be 82 nM; in assay [2], 96 nM. In addition, the activity at 3.3 µM worked out at 82.9% in assay [4], 78.6% in assay [5], 92.7% in assay [6] and 86.1% in assay [7]. Also, the activity at 10 µM in assay [4] is 50.1%; in assay [5] it was 61.8%; in assay [6] it was 64%; in assay [7], 68.5%.
Turning to `COc1cc(C(=O)N2CCC3(CC2)NC(=O)c2cc(C)ccc2O3)cc2c(OC)cccc12` [Compound 145, 1′-[(4,8-Dimethoxynaphth-2-yl)carbonyl]-6-methylspiro[2H-1,3-benzoxazin-2,4′-piperidin]-4-(3H)-one], the IC50 in assay [1] came out at 11 nM; in assay [2], 7 nM; in assay [3], 5200 nM.
As to `COC(=O)c1ccc2c(c1)C(=O)NC1(CCN(C(=O)c3cc(OC)c4cccc(OC)c4n3)CC1)O2` [Compound 201], the IC50 worked out at 20 nM in assay [1] and 18 nM in assay [2]. Further, the activity at 3.3 µM came to 82.5% in assay [4], 59.8% in assay [5], 83.2% in assay [6] and 52.7% in assay [7]. Moreover, the activity at 10 µM in assay [4] came to 61.5%; in assay [5], 46.8%; in assay [6] it was 46.4%; in assay [7], 37.1%.
With `COc1cc(C(=O)N2CCC3(CC2)NC(=O)c2cc(NC(C)=O)ccc2O3)nc2c(C3CC3)cccc12` [Compound 33], the IC50 in assay [1] came out at 73 nM; in assay [2] it was 51 nM; in assay [3] it was 19300 nM.
Taken in the same sequence, the figures for `Cc1nn(C)c2sc(C(=O)N3CCC4(CC3)NC(=O)c3cc(Br)ccc3O4)cc12` [Compound 4, 6-Bromo-1′-{(1,3-dimethyl-1H-thieno[2,3-c]pyrazol-5-yl)carbonyl} spiro[2H-1,3-benzoxazin-2,4′-piperidin]-4-(3H)-one] were 2800 nM, 2900 nM and 50000 nM.
Regarding `COc1ccc2c(c1)C(=O)NC1(CCN(C(=O)c3cc(OC)c4cccc(OC)c4n3)CC1)N2` [Compound 188], in assay [1], the IC50 turned out to be 260 nM. The activity at 3.3 µM worked out at 70.3% in assay [4], 90.3% in assay [5], 94.8% in assay [6] and 62.6% in assay [7]. The activity at 10 µM in assay [4] was determined as 28.7%; in assay [5] it was 68.2%; in assay [6], 51.4%; in assay [7] it was 19%.
Regarding `COc1ccc2c(c1)C(=O)NC1(CCN(C(=O)c3cc(OC)c4cccc(OC)c4c3)CC1)O2` [Compound 152, 1′-[(4,8-Dimethoxynaphth-2-yl)carbonyl]-6-methoxyspiro[2H-1-1,3-benzoxazin-2,4′-piperidin]-4-(3H)-one], the values for the IC50 in assay [1] and in assay [2] were 4 nM and 3 nM, respectively. Besides, the activity at 3.3 µM was 57% in assay [4], 53.3% in assay [5], 84.1% in assay [6] and 88% in assay [7]. In addition, the activity at 10 µM in assay [4] amounted to 25.7%; in assay [5], 42%; in assay [6], 56.9%.
As for `COc1cccc2c(C)c(C(=O)N3CCC4(CC3)NC(=O)c3cc(OC(C)C)ccc3O4)[nH]c12` [Compound 180], the IC50 turned out to be 36 nM in assay [1] and 42 nM in assay [2]. For the same compound, the activity at 3.3 µM amounted to 68.7% in assay [4], 52.6% in assay [5], 79.4% in assay [6] and 79.5% in assay [7]. Besides, the activity at 10 µM in assay [4] amounted to 9.3%; in assay [5], 29.8%; in assay [6] it was 21.2%; in assay [7], 56.8%.
